As a reminder, the LD50 is the dose expected to kill half of the subjects tested.

Read-outs that look alike come from different tables or passages of the source.

The subject of data set [1] is production and secretion of NGF in brain astroglial cells. The experiment in a line: Promoting activity for the production and secretion of NGF in brain astroglial cells of mouse (ELISA). Conditions: 24 h. The procedure:
The experiment was performed by inducing the astroglial cells from mouse forebrain to culture system according to the procedures of S. Furukawa et al. which is described in Biochem. Biophys. Res. Commun., 136, 57-63 (1986).
That is, forebrains of 8-day old mice were dissected out and cut into small pieces. […] Cells and cell clamps were recovered by centrifugation at 200 xg for 5 minutes. They were cultured in Dulbecco modified Eagle's medium (a product of Gibco Co. hereinafter abbreviated as DMEM) containing 10% of fetal calf serum, […] of penicillin, and 50 μg/ml of streptomycin, for 10 to 14 days with medium changes every 3 days. After completing confluency, the cells were dissociated by trypsin treatment and recultured in new culture flasks. This procedure was repeated further twice and more. […] The cells will hereinafter be referred to as astroglial cells.
Astroglial cells were innoculated in 24-well plates having a well surface area of 2.1 cm^2 (a product of Falcon Co.) at a cell density of about 3×10^4 cells/well and cultured for 3 days in DMEM . medium supplemented with 10% of fetal calf serum. After completing confluency about 10^7 cells/well), the medium was changed to DMEM medium (0.5 ml/well) supplemented with 0.5% of bovine serum albumin ((fraction V) and cultured for 3 days. The culture was further continued with medium changes every 3 days. After cells were practically synchronized in the quiscent stage, the medium was changed to 0.5 ml of the medium supplemented with 0.5% of bovine serum albumin and containing a prescribed concentration of test sample as illustrated in Tables. […] Data are expressed as fold increase in NGF content over that in the absence of the test sample. […] Data are presented as means ±SE of four determinations.

Another data set can be described thus: Acute toxicity (LD50). The following applies: mouse, in vivo. As to the method: The catechol derivative having normal type saturated lower alkyl groups on the ring was administered by intravenous injection (i.v.), intraperitoneal injection (i.p.) or oral route (p.o.) to male ddy mice of 4-week old. The LD50 values (mg/kg) were measured by an ordinary method.

Data set [2] deals with rats injected with kainic acid at basal forebrain / sham-operated rats. The experiment in a line: Retention of passive avoidance learning: prevention of retention deficits. The format is in vivo, rat (male Sprague-Dawley). The following applies: Table 8, i.p. 5 mg/kg on days 1, 4, 7. As to the method:
Effects of the derivative on the behavioral parameters of rats injected with kainic acid at basal forebrain were characterized with regard to both prevention against deficits in retention of passive avoidance learning and promotion of recovery from damaged state by repeated learning.
Male Sprague-Dawley rats (9-10 weeks of age, 200-250 g of weight) were anesthetized with Nembutal (50 mg/kg, i.p.) and placed in a stereotaxic apparatus. Bilateral lesions of the ventral globus pallidus were made by direct stereotaxic application (0.7 mm posterior to bregma, 2.7 mm lateral to the midline, and 7.0 mm ventral to the brain surface) of 0.25 μg of kainic acid in 1 μl of PBS (pH 7.4) to prepare disordered models. Controls were sham-operated rats injected with PBS in place of kainic acid solution.
Passive avoidance procedures were performed by using a two chambered step-through passive avoidance apparatus with a guillotine door. A 3 mA scrambled shock was delivered to the dark floor grids for 3 seconds as a punishment. Habituation trial was conducted prior to the acquisition trial. Each rats were placed in the illuminated chamber and the guillotine door was raised after 10 seconds. As soon as the rats entered into the dark chamber, the door was lowered. The rats were removed after 10 seconds and returned to their home cages. […] The acquisition trial was performed similarly to the habituation trial. In the former case, a rat was placed in the illuminated room and the door was opened after 10 seconds. The door was shut immediately after the rat entered into the dark room, a scrambled foot shock was applied, and then the animal was removed. The latency to enter the dark chamber after opening the door was recorded for 300 seconds in the retention of passive avoidance. The latency exceeding 300 seconds was calculated as 300 seconds.
The preventive effects on deficits in retention were estimated by using 60 rats. Thirty rats were injected with kainic acid and other 30 rats were sham-operated with PBS.
Each groups of animals were equally divided into three groups which were received intraperitoneally 5 mg/kg of the derivative (A) (R=2H, R1 =H, R2 =n-propyl, that is, 4-n-propylcatechol), derivative A (R=--CO--, R1 =H, R2 =n-propyl) and saline respectively as a saline solution on one, four and seven days after the operation.
Table 8 illustrates the results obtained by conducting the acquisition trial 10 days after the operation and the retention test after 24 hours.

`CCCc1ccc(O)c(O)c1` [R = Two H, R1 = H, R2 = n-Propyl, 4-n-propylcatechol]: the fold induction at 100 µM in data set [1] (read-out: Ratio of NGF increase, Table 3, 0.10 mM, 24 hours, mean ± SE of four determinations) amounted to 68.4 ± 3.24. Also, the fold induction at 250 µM in data set [1] (read-out: Ratio of NGF increase, Table 3, 0.25 mM, 24 hours, mean ± SE of four determinations) came out at 100 ± 11.2. In addition, the LD50 was > 500 mg/kg in “Acute toxicity (LD50)” (ip, intraperitoneal injection, read-out: LD50 i.p.); > 150 mg/kg in “Acute toxicity (LD50)” (intravenous injection, read-out: LD50 i.v.); > 1500 mg/kg in the data set “Acute toxicity (LD50)” (oral route, read-out: LD50 p.o.). Moreover, the “Animals with more than 150 sec of latency” value in data set [2] (rats operated with kainic acid) is 3 in 10 animals; in data set [2] (sham-operated rats), 10 in 10 animals. The Mean latency in data set [2] (rats operated with kainic acid, *P < 0.01 vs control) worked out at 114 ± 44 s; in data set [2] (sham-operated rats), 286 ± 9 s.

These data come from patent US5214034A, “Catechol derivatives, and preventive and remedial preparations for regressive disorders in the central nervous system containing the same” (priority 1986, dated 1993).
